Several values for one entry are separate records, joined by “and”; a condition that tells them apart may be missing. Equal values may be shown once.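 Cells were grown in 96-well plates and exposed to each compound for 48 hours at five concentrations; endpoints were interpolated linearly between bracketing concentrations, or set to the highest concentration if not reached. Abbreviation: GI50, concentration required for 50% inhibition of growth. TGI denotes the concentration required for complete inhibition of growth.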
Key:
Experiment in all cases: DTP human tumour cell line panel, 48 h
PC-3 prostate = tested on: PC-3 prostate
RPMI-8226 leukemia = tested on: RPMI-8226 leukemia
HOP-62 NSCLC = tested on: HOP-62 NSCLC
COLO 205 colon = tested on: COLO 205 colon
HS 578T breast = tested on: HS 578T breast
MDA-MB-231 breast = tested on: MDA-MB-231 breast
A498 renal = tested on: A498 renal
HCT-116 colon = tested on: HCT-116 colon

SMILES	TGI (PC-3 prostate)	TGI (RPMI-8226 leukemia)	TGI (HOP-62 NSCLC)	TGI (COLO 205 colon)	TGI (HS 578T breast)	TGI (MDA-MB-231 breast)	TGI (A498 renal)	TGI (HCT-116 colon)	GI50 (PC-3 prostate) [µM]	GI50 (RPMI-8226 leukemia) [µM]	GI50 (HOP-62 NSCLC) [µM]	GI50 (COLO 205 colon) [µM]	GI50 (HS 578T breast) [µM]	GI50 (MDA-MB-231 breast) [µM]	GI50 (A498 renal) [µM]	GI50 (HCT-116 colon) [µM]
CCOC(=O)COc1ccc2c(C)cc(=O)oc2c1	> 100 µM	> 100 µM	> 100 µM	> 100 µM	> 100 µM	> 100 µM	> 100 µM	> 100 µM								
CCc1nc(N)nc(N)c1-c1ccc(N2CCNCC2)cc1	> 100 µM	> 90.5 µM	> 100 µM	41.1 µM	> 100 µM	> 100 µM	> 100 µM	> 100 µM								
C=C1C(=O)OC2/C=C(/C)C(OC(C)=O)C/C=C(\C)C(OC(=O)C3(C)OC3C)C(O)C12 (stereo unspecified)	> 100 µM	> 100 µM	> 100 µM	> 100 µM	> 100 µM	> 100 µM	> 100 µM	> 100 µM								
COC(=O)C=Cc1ccc2nncnc2c1 (mixture of isomers)	> 100 µM	> 100 µM	> 100 µM	> 100 µM	> 100 µM	> 100 µM	> 100 µM	> 100 µM								
COc1cc2c3c(n(C)c(=O)c2cc1OC)-c1ccc(C#N)cc1C3=O	> 100 µM	> 100 µM	> 100 µM	> 100 µM	> 100 µM	> 100 µM	> 100 µM	> 100 µM	> 100	> 100	74.1	> 100	> 100	> 100	64.7	> 100
Nc1ncnc2c1ncn2C1OC(CO)C(O)C1N (stereo unspecified)	> 100 µM	> 100 µM	> 100 µM	> 100 µM	> 100 µM	> 100 µM	> 100 µM	> 100 µM								
O=C(CN1C(=O)S/C(=C\C(Cl)=C\c2ccccc2)C1=O)NC1C=CS(=O)(=O)C1 (stereo unspecified)	7.33 µM	4.33 µM	11.1 µM	3.76 µM	8.33 µM	4.15 µM	4 µM	1.83 µM	2.15	0.477	2.97	1.54	2.33	1.44	1.42	0.377
O=C(COc1cccc(/C=C2\CSc3ccccc3C2=O)c1)Nc1nccs1	4.24 µM	2.79 µM	23.2 µM	18.9 µM	12.5 µM	21.4 µM	28.9 µM	2.96 µM	1.82	0.653	11	5.61	2.79	5.46	15.3	1.6
N=c1c2c(=N)n3c(nc2nc2n1-c1ccccc1Sc1ccccc1-2)sc1cc(Cl)ccc13	> 100 µM	> 100 µM	24.1 µM	32.5 µM	7.01 µM	14 µM	6.33 µM	> 100 µM	2.64	0.988	5.87	3.72	1.78	2.8	1.79	1.86
CN(CCCNC(=O)CCOCCOCCOCCNC(=O)Cc1ccc2ccc3cccc4ccc1c2c34)CCCNc1cc(-c2ccc3ccccc3c2)nc2ccccc12	0.988 µM		1.12 µM	0.902 µM	11.5 µM	1.06 µM	2.92 µM	32.5 µM	0.435		0.593	0.436	1.59	0.546	1.38	0.13
COc1cc2c(=O)[nH]c3cc([N+](=O)[O-])ccc3c2cc1[N+](=O)[O-]	> 100 µM		36.2 µM	> 100 µM	> 100 µM	> 100 µM	> 100 µM	> 100 µM	6.07		7.38	4.11	23.3	6.1	2.46	2.25
O=S(=O)(c1cnccc1N1CCN(CCO)CC1)N1CCCC1	> 100 µM	> 100 µM	> 100 µM	> 100 µM	> 100 µM	> 100 µM	> 100 µM	> 100 µM								
COc1cc(-c2nn(-c3cccc(NC(=O)c4ccc(Cl)c(C(F)(F)F)c4)c3)cc2-c2ccncc2)ccc1Cl	> 16.3 µM	> 21.8 µM	> 32.5 µM	17.6 µM	> 29.5 µM	> 32.5 µM	7.01 µM	> 32.5 µM	0.798	1.08	6.5	3.5	1.78	1.44	1.02	2.04
CN(C)C(=S)SCC(=O)Nc1ccccc1		> 100 µM	> 100 µM	> 100 µM	> 100 µM	> 100 µM	> 100 µM	> 100 µM								
COc1cccc(/C=C2\COc3ccc(-c4ccccc4)cc3C2=O)c1	16.2 µM		9.58 µM	5.06 µM	6.61 µM	7.61 µM	3.52 µM	3.47 µM	2.87		3.91	2.18	2.76	2.94	1.89	1.68
O=C1/C=C/[C@@H](O)[C@@H]2C[C@@H](O)C[C@H]2/C=C/CCC[C@H](C(F)(F)F)O1	> 100 µM	1.04 µM	> 100 µM	0.15 µM	> 100 µM	0.774 µM	0.715 µM	0.385 µM	0.502	0.274	2.14	0.0381	0.347	0.268	0.0705	0.153
CCn1c(-c2nonc2N)nc2cncc(C(=O)N3CC[C@H](N)C3)c21	> 25 µM	> 25 µM	> 25 µM	24.7 µM	> 25 µM	> 25 µM	> 25 µM	> 25 µM	> 25	> 25	7.38	5.87	0.559	> 25	1.2	9.9

SMILES	TGI (PC-3 prostate)	TGI (RPMI-8226 leukemia)	TGI (HOP-62 NSCLC)	TGI (COLO 205 colon)	TGI (HS 578T breast)	TGI (MDA-MB-231 breast)	TGI (A498 renal)	TGI (HCT-116 colon)	GI50 (PC-3 prostate) [µM]	GI50 (RPMI-8226 leukemia) [µM]	GI50 (HOP-62 NSCLC) [µM]	GI50 (COLO 205 colon) [µM]	GI50 (HS 578T breast) [µM]	GI50 (MDA-MB-231 breast) [µM]	GI50 (A498 renal) [µM]	GI50 (HCT-116 colon) [µM]
COC(=O)CSSCc1ccc([N+](=O)[O-])cc1	81 µM	54.8 µM	42.4 µM	37.7 µM	59.4 µM	46.8 µM	45.7 µM	59.6 µM								
CC(=O)[O][Hg][c]1c(C)c(C)cc(C)c1C	4.5 µM	6.11 µM	4.05 µM	6.47 µM	4.02 µM	2.33 µM	4.38 µM	3.66 µM	1.73	1.6	2.02	2.49	0.708	0.87	2.09	1.85
CC[C@H](C)[C@H](NC(=O)CN(C)C)C(=O)N(C)[C@H](C[C@@H](OC(C)=O)c1nc(C(=O)NC23CC(C(=O)OC)(C2)C3)cs1)C(C)C	> 25 µM	> 25 µM	> 25 µM	5.59 µM	> 25 µM	> 12.2 µM	> 25 µM	> 25 µM	0.804	0.0845	2.97	0.144	0.125	0.287	1.47	0.381
CN1CSC(=S)N(Cc2ccccc2)C1	> 100 µM	79.7 µM	> 100 µM	32.3 µM	45.7 µM	37.7 µM	31.2 µM	15.6 µM	42.4	5.54	18.6	15	11.4	13.6	0.017	4.49
O=C1c2ccccc2C(=O)c2c(OCCOCCO)cccc21	> 100 µM		> 100 µM	> 100 µM	99.7 µM	> 100 µM		> 100 µM								
CC(=O)c1c(C)[nH]c(-c2nc3ccc(N4CCN(C)CC4)cc3[nH]2)c1-c1ccccc1	> 100 µM		33.5 µM	17.3 µM	17.2 µM	22.8 µM	4.79 µM	17.2 µM	1.04		1.01	0.52	0.392	0.728	0.522	1.54
CCCCCCCCCCCC[n+]1ccc2ccccc2c1	1.12 µM	0.949 µM	3.01 µM	2.59 µM	3.88 µM	2.85 µM	8.76 µM	2.37 µM	0.219	0.295	1.48	1.22	1.54	1.28	2.57	0.857
CSc1ccc2c(c1)C(N1CCN(C)CC1)Cc1ccccc1S2 (stereo unspecified)	17.6 µM and 6.51 µM	4.12 µM and 4.58 µM	23.6 µM and 3.29 µM	3.74 µM and 3.29 µM	15.9 µM and 10.9 µM	13.7 µM and 3.65 µM	25.8 µM and 2.8 µM	16 µM and 4.03 µM	1.89		1.8	1.76	2.51	1.85	1.37	1.98
COc1ccc(N(C)c2nc(N)nc3sc4c(c23)CCCC4)cc1	15.6 µM	15.6 µM	18.8 µM	0.0573 µM	10.3 µM	0.918 µM	< 0.0209 µM	11.3 µM	< 0.01	< 0.01	0.275	0.021	< 0.01	< 0.01	< 0.01	< 0.01
Cc1cc(Cl)nc(N(CCCNc2ccnc3cc(Cl)ccc23)Cc2ccco2)n1	6 µM	3.19 µM	5.65 µM	3.08 µM	8.1 µM	5.93 µM	7.99 µM	4.17 µM	1.87	1.04	1.59	1.43	2.13	2.13	1.55	1.42
NC(=S)c1c(N)n(C2OC(CO)C(O)C2O)c2ncnc(N)c12 (stereo unspecified)		3.05 µM	0.904 µM	0.567 µM	0.648 µM	> 100 µM	0.522 µM		0.221	0.511	0.21	0.186	0.223	0.333	0.211	0.211
CO[C@H]1C[C@@H]2CC[C@@H](C)[C@@](O)(O2)C(=O)C(=O)N2CCCC[C@H]2C(=O)O[C@H]([C@H](C)C[C@@H]2CC[C@@H](OCCO)[C@H](OC)C2)CC(=O)[C@H](C)C=C(C)[C@@H](O)[C@@H](OC)C(=O)[C@H](C)C[C@H](C)/C=C/C=C/C=C1C	16.7 µM	14.1 µM	19.2 µM	30.1 µM		35.4 µM	16.3 µM	18.9 µM	< 0.01	< 0.01	< 0.01	12.3	< 0.01	11.6	< 0.01	3.43
COc1cc2nc3cc([N+](=O)[O-])ccc3c(NCCNCC(C)(C)O)c2cc1OC	2.47 µM	5.8 µM	3.26 µM	1.54 µM	6.15 µM	2.41 µM	3.63 µM	1.54 µM	0.581	1.49	0.953	0.37	1.75	0.451	1.83	0.368
CCCCCCCCCCCCCC[C@@H](O)[C@H]1CC[C@H]([C@H]2CC[C@H]([C@H](O)CCCCCC[C@@H](O)CC3=C[C@H](C)OC3=O)O2)O1	7.31 µM and > 25 µM	> 25 µM	> 25 µM	3.06 µM and > 25 µM	3.15 µM and > 25 µM	8.9 µM and > 25 µM	> 25 µM	> 25 µM	2.13	2.16	2.74	1.52	> 25	2.31	3.27	2.2
O=[N+]([O-])c1cccc(C2CC(c3ccccc3)=Nc3ccccc3S2)c1 (stereo unspecified)	28.7 µM	17.3 µM	> 100 µM	41.7 µM	> 100 µM	33.6 µM	95.8 µM	9 µM	10.1	3.41	37.8	19.2	20	12.9	14.7	2.94
CN(CC(=O)N(Cc1ccc(C2CCCCC2)cc1)c1ccc(C(=O)O)cc1)S(=O)(=O)c1c(F)c(F)c(F)c(F)c1F	3.96 µM	7.4 µM	4.59 µM	3.95 µM	6.04 µM	3.51 µM	7.65 µM	3.68 µM	2.08	2.85	2.09	1.97	2.47	1.9	2.15	1.93
